Data as given in article PMC3723878 (PLoS ONE, 2013).
Positions count from the first letter of the chain named.

How the values were obtained:
Test in all cases: Saturation binding of ^125I-HEAT
[1] = target: T1, human α1A-AR WT (Homo sapiens, UniProt P35348)
T1 construct: expressed in transfected cells; host or cells: COS-7, transient (calcium phosphate)
T1 sequence (P35348 1-466): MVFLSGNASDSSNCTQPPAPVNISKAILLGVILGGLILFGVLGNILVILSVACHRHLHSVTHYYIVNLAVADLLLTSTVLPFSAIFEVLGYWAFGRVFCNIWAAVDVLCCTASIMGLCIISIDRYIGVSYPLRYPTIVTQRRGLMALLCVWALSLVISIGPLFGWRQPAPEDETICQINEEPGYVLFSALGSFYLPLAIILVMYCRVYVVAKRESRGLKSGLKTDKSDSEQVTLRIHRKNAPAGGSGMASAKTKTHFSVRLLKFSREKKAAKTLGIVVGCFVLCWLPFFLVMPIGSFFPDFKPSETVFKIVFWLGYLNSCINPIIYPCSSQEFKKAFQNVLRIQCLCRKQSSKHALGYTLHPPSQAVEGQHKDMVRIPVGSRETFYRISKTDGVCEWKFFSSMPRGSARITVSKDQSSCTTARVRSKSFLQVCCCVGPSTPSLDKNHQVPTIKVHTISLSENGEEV

[2] = target: T2, human α1A-AR F193A variant (Homo sapiens, UniProt P35348, F193A)
T2 construct: expressed in transfected cells; host or cells: COS-7, transient (calcium phosphate)
T2 sequence (P35348 1-466 F193A): T1 sequence (P35348 1-466) with F193A

[3] = target: T3, human α1A-AR F281A variant (Homo sapiens, UniProt P35348, F281A)
T3 construct: expressed in transfected cells; host or cells: COS-7, transient (calcium phosphate)
T3 sequence (P35348 1-466 F281A): T1 sequence (P35348 1-466) with F281A

O=C1c2ccccc2CCC1CNCCc1ccc(O)c([125I])c1 (centres unmarked) [125I-HEAT]
^125I-HEAT Ratio (affinity relative to WT) [1]: 1 | ^125I-HEAT pKd ([1]; saturation binding, n = 3–6): 10.05±0.14 | ^125I-HEAT Ratio (loss of affinity relative to WT) [2]: 2.8 | ^125I-HEAT Ratio (loss of affinity relative to WT) ([3]; F281A): 3.9 | ^125I-HEAT pKd ([3]; F281A (6.44), saturation binding, n = 3–6): 9.46±0.09
